Values after ≈ are worked out from the molar mass of the structure shown.
Experiments:
FMNAT activity of CaFADS = target: T1, FMNAT activity of CaFADS (Corynebacterium ammoniagenes, UniProt Q59263); experiment: Inhibition of the FMNAT activity of CaFADS; type: biochemical; conditions: 25 °C; for FMNAT % Res. act. 250 μM: residual activity at 250 μM of compound; for IC50: kinetic measurements, 5 μM FMN, 50 μM ATP, 20 mM PIPES pH 7.0, 10 mM MgCl2, 2% DMSO
T1 construct: made in house; host or cells: Escherichia coli BL21(DE3)
T1 sequence (Q59263 whole entry): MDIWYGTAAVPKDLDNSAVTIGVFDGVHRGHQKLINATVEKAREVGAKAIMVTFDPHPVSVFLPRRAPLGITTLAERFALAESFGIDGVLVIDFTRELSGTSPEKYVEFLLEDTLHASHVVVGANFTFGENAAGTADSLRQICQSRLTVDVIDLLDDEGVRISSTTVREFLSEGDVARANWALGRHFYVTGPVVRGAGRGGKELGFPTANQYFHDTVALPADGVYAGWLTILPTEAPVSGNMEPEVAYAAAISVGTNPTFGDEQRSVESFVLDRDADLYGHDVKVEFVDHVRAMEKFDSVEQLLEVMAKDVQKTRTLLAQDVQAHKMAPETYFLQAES
Method: (§1) To determine the compound’s ability to inhibit the RFK and/or the FMNAT activities of CaFADS, both enzymatic activities were quantitatively measured in the absence and presence of the compounds following previously described protocols. Reaction mixtures contained 50 μM ATP, 5 μM RF in 20 mM PIPES, pH 7.0, 0.8 mM MgCl2, when assaying the RFK activity, and 50 μM ATP, 10 μM FMN in 20 mM PIPES, pH 7.0, 10 mM MgCl2 when measuring the FMNAT reaction. Each compound was tested at 250 μM (0.5% residual final concentration of DMSO) for each of the two enzymatic reactions. The samples were pre-incubated at 25 °C, the reaction was then initiated by the addition of ∼ 40 nM CaFADS (final concentration) and allowed for 1 min. Finally, the reaction was stopped by boiling the samples for 5 min and the denatured protein was eliminated through centrifugation. The transformation of RF into FMN and FAD (RFK activity) and of FMN into FAD (FMNAT activity) was evaluated through flavins separation by HPLC (Waters), as previously described. All the experiments were performed in triplicate. To evaluate the potency of compounds as inhibitors, we took advantage of the decrease in quantum yield of fluorescence when FMN is transformed into FAD, which allows to follow such transformation in a continuous system. Measurements were carried out using a microplate reader Synergy HT multimode plate reader (Biotek) with BRAND 96-well plates pure Grade. Reaction mixtures contained 5 μM RF or FMN, and 50 μM ATP in 20 mM PIPES, pH 7.0, 10 mM MgCl2, and the inhibitor compound in a 5-250 μM concentration range (2% residual final concentration of DMSO). Reactions were initiated through addition of 0.4 μM CaFADS, being the final reaction volume 100 μL. Flavin fluorescence (excitation at 440 nm and emission at 530 nm) was registered at 25 °C, every 50 s during 15 min. The fluorescence change per time unit (ΔF/Δt) was calculated as the slope of the resulting fluorescence decays recorded between 0 and 6 min (linear decay of the fluorescence). Controls which contained the reaction mixture without the enzyme and without any potential CaFADS inhibitory compound were included in the assay and referred as the 0% and 100% of enzymatic activity, respectively. IC50 was calculated as the concentration of compound required for a 50% inhibition of the enzymatic activity.

[1] = target: T2, RFK+FMNAT CaFADS activities (Corynebacterium ammoniagenes, UniProt Q59263); experiment: Inhibition of the RFK+FMNAT activity of CaFADS; type: biochemical; conditions: 25 °C; for RFK+FMNAT % Res. act. 250 μM: residual activity at 250 μM of compound; for IC50: kinetic measurements, 20 mM PIPES pH 7.0, 10 mM MgCl2, 2% DMSO
T2 construct: made in house; host or cells: Escherichia coli BL21(DE3)
T2 sequence (Q59263 whole entry): as above
Method: as §1

C. ammoniagenes = experiment: MIC, resazurin broth microdilution; type: cell-based, Corynebacterium ammoniagenes; conditions: for MIC: C. ammoniagenes; for MIC (μM) C. ammoniagenes: Table 3
C. glutamicum = experiment: MIC, resazurin broth microdilution; type: cell-based, Corynebacterium glutamicum; conditions: media BHI
C. diphteriae = experiment: MIC, resazurin broth microdilution; type: cell-based, Corynebacterium diphteriae
M. tuberculosis = experiment: MIC, resazurin broth microdilution; type: cell-based, Mycobacterium tuberculosis; conditions: for MIC: M. tuberculosis, media 7H9G-ADC; for MIC (μM) M. tuberculosis: Table 3
M. smegmatis = experiment: MIC, resazurin broth microdilution; type: cell-based, Mycobacterium smegmatis; conditions: media 7H9G-ADC
S. pneumoniae = experiment: MIC, resazurin broth microdilution; type: cell-based, Streptococcus pneumoniae
E. coli = experiment: MIC, resazurin broth microdilution; type: cell-based, Escherichia coli; conditions: media LB
L. monocytogenes = experiment: MIC, resazurin broth microdilution; type: cell-based, Listeria monocytogenes; conditions: media BHI
P. aeruginosa = experiment: MIC, resazurin broth microdilution; type: cell-based, Pseudomonas aeruginosa; conditions: media MH
S. thyphimurium = experiment: MIC, resazurin broth microdilution; type: cell-based, Salmonella thyphimurium; conditions: media MH
S. aureus = experiment: MIC, resazurin broth microdilution; type: cell-based, Staphylococcus aureus; conditions: media MH
Mycobacteriumspecies = experiment: MIC against Mycobacterium species (S5 Fig legend); type: cell-based
A549 = experiment: MTT cytotoxicity assay; type: cell-based; conditions: 24 h
Method: (§2) The (4,5-dimethylthiazol-2-yl)-2,5-diphenyl tetrazolium bromide (MTT) assay was used to determine the effect of the compounds in cell growth and viability of HeLa (ATCC CCL-2) and A549 (ATCC CCL-185) eukaryotic cell lines. Both cell lines were routinely cultured in high-glucose DMEM (Lonza) supplemented with 10% fetal bovine serum, 4 mM glutamine GlutaMAX™ (Gibco) and 1x non-essential amino acids (Gibco), under 5% CO2 at 37 °C in a humidified atmosphere. For the MTT assay, cells were initially seeded in 96-well flat-bottom plates at a density of 10^4 cells per well and cultured for 24 h. Cultures were routinely tested for mycoplasma presence. The compounds were dissolved in fresh culture medium, added in a 4-512 μM concentration range (1% DMSO final concentration), and incubated with the cells for 24 h. Finally, formazan crystals were dissolved with pure DMSO and MTT absorbance was measured at 570 and 650 nm. Untreated cells were included as control of 100% viability. Assays were done in quadruplicate.

HeLa = experiment: MTT cytotoxicity assay; type: cell-based; conditions: 24 h
Method: as §2

CaFADS = target: T3, CaFADS (Corynebacterium ammoniagenes, UniProt Q59263); experiment: Differential scanning fluorescence (thermal denaturation) binding to CaFADS; conditions: for Tm shift of CaFADS thermal denaturation: 2 μM CaFADS, compound up to 250 μM; for Kd: from differential scanning fluorescence data fitted to Eq 2, 20 mM PIPES pH 7.0, 10 mM MgCl2, 2% DMSO, n = 3, mean ± SD
T3 construct: made in house; host or cells: Escherichia coli BL21(DE3)
T3 sequence (Q59263 whole entry): as above
Method: Interaction of compounds with CaFADS was evaluated using fluorescence thermal denaturation, on the bases of the shifts in denaturation midpoints of thermal curves of the protein [65]. Denaturations were performed in a Stratagene Agilent Mx3005p qPCR instrument (Santa Clara, US) following SYPR Orange (ThermoFisher Scientific) emission fluorescence (excitation at 492 nm and emission at 610 nm), which greatly increases when this probe binds to protein hydrophobic regions becoming solvent exposed upon thermal unfolding. Solutions containing 2 μM CaFADS with the studied compound in an increasing 5-250 μM concentration range (2% residual final concentration of DMSO) and 5xSYPR Orange in 20 mM PIPES pH 7.0, 10 mM MgCl2, with a 100 μL total volume were dispensed into 96-well microplates (BRAND 96-well plates pure grade™). After an initial 1 min incubation at 25 °C within the equipment, unfolding curves were registered from 25 to 100 °C at 1 °C·min^−1. Control experiments with CaFADS samples with/without DMSO were routinely performed in each microplate. For those compounds shifting midpoint denaturation temperature, Tm, the dissociation constant, Kd, was predicted by fitting the data to the equation [66] ΔTm/Tm=NRTm0/ΔH0ln(1+[L]/Kd), (2) which estimates the extent of the ligand-induced protein stabilization/destabilization. ΔTm=|Tm-Tm0| with Tm0 and Tm being the midpoint denaturation temperatures in the absence and the presence of ligand, respectively, and ΔH0 the unfolding enthalpy of the protein in the absence of ligand.

[2] = 4-512 μM range, read-out: IC50 (concentration causing 50% inhibition of cellular viability)
[3] = complete viability at lower concentrations

Compound	FMNAT % Res. act. 250 μM (FMNAT activity of CaFADS)	RFK+FMNAT % Res. act. 250 μM [1]	MIC (C. ammoniagenes; media BHI)	MIC (C. ammoniagenes; media MH)	MIC (C. ammoniagenes; media MH+DFO)	MIC (C. ammoniagenes; media MH+DIP)	MIC (C. ammoniagenes; media MH+DIP+DFO)	MIC (C. glutamicum)	MIC (C. diphteriae; media BHI)	MIC (C. diphteriae; media MH)	MIC (M. tuberculosis)	MIC (M. smegmatis)	MIC (S. pneumoniae; media BHI)	MIC (S. pneumoniae; media MH)	MIC (E. coli)	MIC (L. monocytogenes)	MIC (P. aeruginosa)	MIC (S. thyphimurium)	MIC (S. aureus)	Tm shift of CaFADS thermal denaturation (CaFADS)	further results
COc1ccc(C(NC(=O)CCC(NC(=O)OCc2ccccc2)C(=O)O)c2ccc(OC)cc2)cc1 (stereo not shown) [Compound C2, 2-{[(benzyloxy)carbonyl]amino}-5-{[di(4-methoxyphenyl)methyl]amino}-5-oxopentanoic acid]	>95%	88 ± 2%	64 µM (≈ 32.4 µg/mL)	128 µM (≈ 64.8 µg/mL)	128 µM (≈ 64.8 µg/mL)	128 µM (≈ 64.8 µg/mL)	64 µM (≈ 32.4 µg/mL)	16 µM (≈ 8.1 µg/mL)	64 µM (≈ 32.4 µg/mL)	128 µM (≈ 64.8 µg/mL)	256 µM (≈ 130 µg/mL)	256 µM (≈ 130 µg/mL)	256 µM (≈ 130 µg/mL)	> 256 µM	> 64 µM	> 64 µM	> 256 µM	> 256 µM	128 µM (≈ 64.8 µg/mL)	–	MIC C. ammoniagenes (C. ammoniagenes; S5 Fig legend, medium not stated): 64 µM (≈ 32.4 µg/mL); MIC (μM) C. ammoniagenes (C. ammoniagenes): 128 µM (≈ 64.8 µg/mL); MIC (μM) M. tuberculosis (M. tuberculosis): 256 µM (≈ 130 µg/mL); MIC Mycobacterium species (Mycobacteriumspecies): lower than 256 μM; IC50 (A549; [2]): > 512 µM; IC50 (HeLa; [2]): > 512 µM
CC1(C(=O)O)CCC2C(CCC3CC(O)CCC32C)C1C=C1Nc2ccccc2C1=O (stereo not shown) [Compound C3, 7-hydroxy-2,4b-dimethyl-1-[(3-oxo-2,3-dihydro-1H-2-indolyliden)methyl]perhydro-2-phenanthrenecarboxylic acid]	48 ± 3%	48 ± 5%	> 64 µM	> 256 µM	> 256 µM	> 256 µM	> 256 µM	> 64 µM	> 64 µM	> 256 µM	256 µM (≈ 108 µg/mL)	> 256 µM	256 µM (≈ 108 µg/mL)	256 µM (≈ 108 µg/mL)	> 64 µM	> 64 µM	> 256 µM	> 256 µM	> 256 µM	shifted it to lower values	Kd (CaFADS): 18 ± 8 µM; IC50 (FMNAT activity of CaFADS): 238 ± 7 µM; IC50 [1]: 248 ± 3 µM; MIC (μM) C. ammoniagenes (C. ammoniagenes): >256 µM; MIC (μM) M. tuberculosis (M. tuberculosis): 256 µM (≈ 108 µg/mL); MIC Mycobacterium species (Mycobacteriumspecies): lower than 256 μM
CSC(=NS(=O)(=O)c1c(C)noc1C)NNC(=O)Nc1ccc(Cl)cc1 [Compound C9, N1-(4-chlorophenyl)-2-[{[(3,5-dimethylisoxazol-4-yl)sulfonyl]imino}(methylthio)methyl]hydrazine-1-carboxamide]	56 ± 6%	76 ± 3%	> 64 µM	> 256 µM	> 256 µM	> 256 µM	> 256 µM	> 64 µM	> 64 µM	> 256 µM	> 256 µM	> 256 µM	> 256 µM	> 256 µM	> 64 µM	> 64 µM	> 256 µM	> 256 µM	> 256 µM	more than 3 degrees	Kd (CaFADS): 6.4 ± 1.2 µM
O=C(O)c1ccccc1C(=O)NC1CCN(c2nccc(C(F)(F)F)n2)CC1 [Compound C18, 2-[({1-[4-(trifluoromethyl)pyrimidin-2-yl]piperidin-4-yl}amino)carbonyl]benzoic acid]	–	–	–	> 256 µM	–	> 256 µM	256 µM (≈ 101 µg/mL)	> 256 µM	–	32 µM (≈ 12.6 µg/mL)	> 256 µM	–	–	–	> 256 µM	64 µM (≈ 25.2 µg/mL)	> 256 µM	> 256 µM	256 µM (≈ 101 µg/mL)	shifted it to lower values	Kd (CaFADS): 3 ± 0.9 µM; IC50 (FMNAT activity of CaFADS): 143 ± 4 µM; IC50 [1]: 147 ± 4 µM; concentration range with moderate cytotoxicity (A549; [3]): 256 to 512 µM; concentration range with moderate cytotoxicity (HeLa; [3]): 256 to 512 µM
O=C(NCCNc1ccc(C(F)(F)F)cc1[N+](=O)[O-])c1cccnc1Oc1ccccc1 [Compound C26, N-{2-[2-nitro-4-(trifluoromethyl)anilino]ethyl}-2-phenoxynicotinamide]	72 ± 6%	84 ± 4%	–	> 256 µM	> 256 µM	> 256 µM	> 256 µM	> 256 µM	–	> 256 µM	> 256 µM	–	–	–	> 256 µM	> 256 µM	> 256 µM	> 256 µM	> 256 µM	–	–

Source: paper PMC7449411, “In silico discovery and biological validation of ligands of FAD synthase, a promising new antimicrobial target” (PLoS Computational Biology, 2020)
